We go through 4 molecules from patent US9701644B2, “Salt of nitrogen-containing heterocyclic compound or crystal thereof, pharmaceutical composition, and FLT3 inhibitor” (FUJIFILM Corporation, priority 2013, dated 2017).

One data set has as its system MOLM-13 cells. As to the kind of experiment: Leukemic cell growth inhibition test (MOLM-13). In kind it is cell-based. The following applies: MOLM-13, 72 hours culture, CellTiter-Glo. As to the method: (§1) A leukemic cell growth inhibition test was performed by using the leukemic cell strains MV4-11 (ATCC Number, CRL-9591) and MOLM-13 (DSMZ Number, ACC554).
(§2) The leukemic cell growth inhibition test was performed by the method described below.
(§3) For the purpose of measuring growth inhibition with a test compound, the total cell count was quantified on the basis of the total cellular ATP concentration using the CellTitet-Glo (PerkinElmer) reagent that enables quantification of ATP concentration based on the luciferin-luciferase reaction. The MOLM-13 or MV4-11 cells were added to the RPMI medium containing penicillin (100 units/mL), streptomycin (100 μg/mL), and 10% FBS at a density of 2×10^5 cells/ml, and 50 μL (10,000 cells) of the mixture was inoculated to each well of a 96-well plate (Corning).
(§4) A serially diluted solution of a test compound or 0.1% DMSO (solvent control) in a volume of 50 μL was added to the cells, and then the cells were cultured for 72 hours under the standard cell proliferation conditions (37° C., 5% CO2) to allow proliferation of the cells. In order to measure the total cell proliferation, equal volume of the CellTitet-Glo reaction mixture was added to each well in accordance with the instructions attached to CellTitet-Glo, and luminescence count was quantified (relative light unit, RLU).
(§5) The RLU signal observed for the DMSO solvent control after 72 hours of culture was defined as a signal indicating 0% inhibition, and the GI50 value for the growth inhibition corresponds to a concentration of a compound that provides 50% inhibition of the total cell proliferation observed in the DMSO solvent control. Each data point was obtained from samples prepared in duplicate. The GI50 values were calculated by the non-linear regression fitting (Fit Model (205)) according to a sigmoid dose-reaction equation using the XLfit software.
(In ATP-based viability assays light output follows the ATP content of the culture.)

For a further data set, the system named is MV4-11 cells. As to the kind of experiment: Leukemic cell growth inhibition test (MV4-11). In kind it is cell-based. The following applies: MV4-11, 72 hours culture, CellTiter-Glo. As to the method:
as §1, §2, §3, §4, §5

Data set [1] is described as follows: Storage stability test (1), open glass bottle, 2 weeks. The data set is classed as physicochemical. The following applies: for storage stability / Moisture content / Purity: open glass bottle; for storage stability / change of the purity and moisture content after storage: in words; for change of the purity and moisture content after storage: storage over 2 weeks. As to the method: (§6) The purities are represented in terms of area % measured by high performance liquid chromatography (HPLC). The HPLC measurement was performed by using Prominence (Shimadzu) under the following conditions.
Crystals of the compounds of Examples 1 and 3 were chosen as test substances.
Each test substance (200 mg) was put into a glass bottle of an open state, and stored for 2 weeks under the storage condition 1 (25° C., 75% relative humidity), or the storage condition 2 (40° C., 75% relative humidity). Purity and moisture content of the test substance were measured before the start of the test and after the end of the test.

The nature of data set [2]: Storage stability test (2), double plastic bag, 4 weeks. In kind it is physicochemical. On the procedure:
as §6
The crystals of the compound of Example 1 were chosen as test substance.
The test substance (200 mg) was put into double plastic bag, and the opening was tied up. The bag was stored for 4 weeks under the storage condition 1 (25° C., 75% relative humidity), or the storage condition 2 (40° C., 75% relative humidity). Purity and moisture content of the test substance were measured before the start of the test and after the end of the test.

A short description of a further data set: Solubility test in water. The following applies: room temperature, stirred 24 hours. In kind it is physicochemical. As to the method:
The compounds of Examples 1 and 3 were chosen as test compounds.
The compound A was chosen as a comparative compound.
The test compounds and the comparative compound were each added to water, and each mixture was stirred at room temperature for 24 hours. The insoluble matter was removed by filtration using a membrane filter (0.2 μm). The filtrate was analyzed by HPLC to obtain solubility.

Where [3] appears, read: storage condition 1 (25° C., 75% relative humidity), 2 weeks.
Setting [4] is: storage condition 2 (40° C., 75% relative humidity), 2 weeks.
Where [5] appears, read: storage condition 1 (25° C., 75% relative humidity), 4 weeks.
Where [6] appears, read: storage condition 2 (40° C., 75% relative humidity), 4 weeks.

SMILES strings stand for the structures. In brackets after ≈: the same amount, converted by molar mass. Counter-ions that a name gives are not always drawn.

One may read the GI50 as the concentration giving 50% growth inhibition. A high value points to less potent growth inhibition. In general, Solubility refers to how much of the substance goes into solution per volume. A higher Solubility goes with a readily soluble substance. In the case of `CCCNc1nc(Nc2ccc(C#N)cc2)ncc1C#CCCCNC(=O)[C@H](C)N(C)C(=O)/C=C/CN(C)C` [Example 1, succinate of the compound A], the GI50 was determined as 1.47 nM in the data set with MOLM-13 cells (Homo sapiens, MOLM-13, 72 h) and 0.52 nM with MV4-11 cells (Homo sapiens, MV4-11, 72 h). Besides, the storage stability entry in data set [1] (2 weeks) is given as “superior”. Also, the Moisture content in data set [1] (before start of test) is 0.5%; in data set [1] (setting [3]) it was 0.2%; in data set [1] (setting [4]) it was 0.2%; in data set [2] (before start of test) it was 0.2%; in data set [2] (setting [5]), 0.2%; in data set [2] (setting [6]), 0.2%. Besides, the Purity is 99.6% in data set [1] (before start of test); 99.6% in data set [1] (setting [3]); 99.6% in data set [1] (setting [4]); 99.4% in data set [2] (before start of test); 99.4% in data set [2] (setting [5]); 99.4% in data set [2] (setting [6]). For the same molecule, the “change of the purity and moisture content after storage” value in data set [1] is listed as “little change”. Moreover, the Solubility in the data set “Solubility test in water” came out at 70000 µg/mL.

As for `CCCNc1nc(Nc2ccc(C#N)cc2)ncc1C#CCCCNC(=O)[C@H](C)N(C)C(=O)/C=C/CN(C)C` [Example 3, fumarate of the compound A], the figures for the concentration for 50% growth inhibition (GI50) in the data set on MOLM-13 cells and in the data set with MV4-11 cells were 1.6 nM and 0.6 nM, respectively. Besides, the storage stability result in data set [1] (2 weeks) is given as “superior”. Besides, the “change of the purity and moisture content after storage” value in data set [1] is “little change”. Further, the Solubility in the data set “Solubility test in water” came out at 890 µg/mL.

In the data set “Solubility test in water”, `CCCNc1nc(Nc2ccc(C#N)cc2)ncc1C#CCCCNC(=O)[C@H](C)N(C)C(=O)/C=C/CN(C)C` [Compound A, (S,E)-N-(1-((5-(2-((4-cyanophenyl)amino)-4-(propylamino)pyrimidin-5-yl)pent-4-yn-1-yl)amino)-1-oxopropan-2-yl)-4-(dimethylamino)-N-methylbut-2-enamide] yielded a Solubility of 20 µg/mL (≈ 37.7 µM).

On to `CCCNc1nc(Nc2ccc(C#N)cc2)ncc1C#CCCCNC(=O)[C@H](C)N(C)C(=O)/C=C/CN(C)C` [Example 2, succinate of the compound A], for which the results for the GI50 in the data set on MOLM-13 cells and with MV4-11 cells were 1.5 nM and 0.6 nM, respectively. For the same molecule, the Moisture content in data set [1] (before start of test) is given as 1.7%; in data set [1] (setting [3]) it was 3.2%; in data set [1] (setting [4]), 2.1%. The Purity in data set [1] (before start of test) is on record as 99.7%; in data set [1] (setting [3]), 99.6%; in data set [1] (setting [4]) it was 99.6%.
